# Source: the supplement of paper PMC10307832
# Legend:
# Assay in all cases: relative viability (nuclei count vs DMSO), 5 days (fraction); higher = more cells survive
# GSK-J4 + Olaparib = compound: CCOC(=O)CCNc1cc(N2CCc3ccccc3CC2)nc(-c2ccccn2)n1 [GSK-J4] + O=C(c1cc(Cc2n[nH]c(=O)c3ccccc23)ccc1F)N1CCN(C(=O)C2CC2)CC1 [Olaparib] (partner 8 µM)
# How it was run: (§1)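 A single step with final 0.05% Triton X-100, 1% formaldehyde and 1 ug/ml Hoechst fixed the cells and stained nuclei 5 days after treatment. Lung cancer cell lines in 1536-well plates had been treated by pin tool the day after seeding with one drug alone or a fixed anchor-drug dose plus five library-drug doses (not always all listed) in √10 steps, and nuclei were counted on 4× images. Relative viability is the ratio of nuclei in treated wells to nuclei in vehicle wells, taken as the median of duplicate plates.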
# GSK-J4 + Lapatinib = compound: CCOC(=O)CCNc1cc(N2CCc3ccccc3CC2)nc(-c2ccccn2)n1 [GSK-J4] + CS(=O)(=O)CCNCc1ccc(-c2ccc3ncnc(Nc4ccc(OCc5cccc(F)c5)c(Cl)c4)c3c2)o1 [Lapatinib] (partner 2 µM)
# How it was run: as §1
# GSK-J4 + Tozasertib = compound: CCOC(=O)CCNc1cc(N2CCc3ccccc3CC2)nc(-c2ccccn2)n1 [GSK-J4] + Cc1cc(Nc2cc(N3CCN(C)CC3)nc(Sc3ccc(NC(=O)C4CC4)cc3)n2)n[nH]1 [Tozasertib] (partner 0.1 µM)
# How it was run: as §1
# GSK-J4 + Bortezomib = compound: CCOC(=O)CCNc1cc(N2CCc3ccccc3CC2)nc(-c2ccccn2)n1 [GSK-J4] + CC(C)C[C@H](NC(=O)[C@H](Cc1ccccc1)NC(=O)c1cnccn1)B(O)O [Bortezomib] (partner 0.002 µM)
# How it was run: as §1
Cell Line,relative viability (GSK-J4 + Olaparib; first compound 0.5 µM),relative viability (GSK-J4 + Olaparib; first compound 1.581 µM),relative viability (GSK-J4 + Olaparib; first compound 15.81 µM),relative viability (GSK-J4 + Olaparib; first compound 50 µM),relative viability (GSK-J4 + Lapatinib; first compound 0.5 µM),relative viability (GSK-J4 + Lapatinib; first compound 1.581 µM),relative viability (GSK-J4 + Lapatinib; first compound 15.81 µM),relative viability (GSK-J4 + Lapatinib; first compound 50 µM),relative viability (GSK-J4 + Tozasertib; first compound 0.5 µM),relative viability (GSK-J4 + Tozasertib; first compound 1.581 µM),relative viability (GSK-J4 + Tozasertib; first compound 15.81 µM),relative viability (GSK-J4 + Tozasertib; first compound 50 µM),relative viability (GSK-J4 + Bortezomib; first compound 0.5 µM),relative viability (GSK-J4 + Bortezomib; first compound 1.581 µM),relative viability (GSK-J4 + Bortezomib; first compound 15.81 µM),relative viability (GSK-J4 + Bortezomib; first compound 50 µM),relative viability (GSK-J4 + Olaparib; first compound 5 µM),relative viability (GSK-J4 + Lapatinib; first compound 5 µM),relative viability (GSK-J4 + Tozasertib; first compound 5 µM),relative viability (GSK-J4 + Bortezomib; first compound 5 µM)
NCI-H2405,0.849,0.836,0.815,0.777,1.15,1.03,1.09,1.17,0.743,0.703,0.719,0.671,0.992,0.724,0.968,1.04,,,,
NCI-H647,0.456,0.471,0.5,0.374,1.01,0.954,0.977,0.815,0.315,0.192,0.28,0.155,0.912,0.862,1.12,0.982,0.545,0.94,0.178,0.652
NCI-H596,0.668,0.726,0.738,0.586,1.01,1.02,0.866,0.916,0.953,0.891,0.847,0.691,0.999,0.945,0.976,1,0.734,1,0.971,0.99
EMC-BAC-2,0.403,0.461,0.444,0.391,0.925,0.928,0.824,0.806,0.251,0.248,0.263,0.285,1.08,0.944,0.965,1.08,0.407,0.802,0.215,0.811
H3255,0.553,0.521,0.445,0.362,0.238,0.255,0.206,0.493,0.519,0.622,0.531,0.508,0.858,0.632,0.579,0.603,0.523,0.271,0.539,0.655
NCI-H1651,0.178,0.158,0.182,0.18,0.84,0.779,0.863,0.839,0.674,0.623,0.569,0.567,0.893,0.842,0.901,0.884,0.184,0.814,0.807,0.893
NCI-H23,0.25,0.299,0.344,0.285,0.994,,0.778,0.674,0.333,0.397,0.281,0.249,0.987,,1.03,0.969,0.292,0.772,0.373,0.791
NCI-H1355,0.732,0.672,0.677,0.503,0.946,0.875,0.916,0.919,0.517,0.517,0.439,0.437,1.23,1.04,1.16,1.16,0.762,0.944,0.575,1.11
NCI-H2085,0.773,0.734,0.707,0.627,0.696,0.679,0.615,0.397,0.765,0.733,0.806,0.652,0.949,0.927,1.09,1,0.654,0.77,0.756,0.857
